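1) Cells in 96-well plates. 2) Compound, 48 h, 5 concentrations. 3) Linear interpolation between surrounding doses. 4) Unreached endpoint = highest concentration. GI50 = concentration required for 50% inhibition of growth. TGI: total growth inhibition.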
Tests used:
Assay in all cases: NCI tumour cell line growth inhibition, 48 h
UACC-62 melanoma = test system: UACC-62 melanoma
SR leukemia = test system: SR leukemia
A549 NSCLC = test system: A549 NSCLC
SF-539 CNS = test system: SF-539 CNS
OVCAR-4 ovarian = test system: OVCAR-4 ovarian
BT-549 breast = test system: BT-549 breast
T-47D breast = test system: T-47D breast
HCT-116 colon = test system: HCT-116 colon
A498 renal = test system: A498 renal
786-0 renal = test system: 786-0 renal
M14 melanoma = test system: M14 melanoma
SF-295 CNS = test system: SF-295 CNS
UO-31 renal = test system: UO-31 renal
OVCAR-5 ovarian = test system: OVCAR-5 ovarian
NCI-H226 lung = test system: NCI-H226 lung
HS 578T breast = test system: HS 578T breast
SNB-75 CNS = test system: SNB-75 CNS
HCC-2998 colon = test system: HCC-2998 colon
U251 CNS = test system: U251 CNS
SNB-19 CNS = test system: SNB-19 CNS
CAKI-1 renal = test system: CAKI-1 renal
NCI-H522 lung = test system: NCI-H522 lung
PC-3 prostate = test system: PC-3 prostate
HOP-62 NSCLC = test system: HOP-62 NSCLC
ACHN renal = test system: ACHN renal
MALME-3M melanoma = test system: MALME-3M melanoma
RXF 393 renal = test system: RXF 393 renal
OVCAR-8 ovarian = test system: OVCAR-8 ovarian
K-562 leukemia = test system: K-562 leukemia
NCI-H23 lung = test system: NCI-H23 lung
SK-OV-3 ovarian = test system: SK-OV-3 ovarian
UACC-257 melanoma = test system: UACC-257 melanoma
HOP-92 NSCLC = test system: HOP-92 NSCLC
HT29 colon = test system: HT29 colon
COLO 205 colon = test system: COLO 205 colon
SK-MEL-2 melanoma = test system: SK-MEL-2 melanoma
KM12 colon = test system: KM12 colon
OVCAR-3 ovarian = test system: OVCAR-3 ovarian
EKVX NSCLC = test system: EKVX NSCLC
SK-MEL-5 melanoma = test system: SK-MEL-5 melanoma
SF-268 CNS = test system: SF-268 CNS
SW-620 colon = test system: SW-620 colon
TK-10 renal = test system: TK-10 renal
HL-60(TB) leukemia = test system: HL-60(TB) leukemia
RPMI-8226 leukemia = test system: RPMI-8226 leukemia
MDA-MB-468 breast = test system: MDA-MB-468 breast
DU-145 prostate = test system: DU-145 prostate
HCT-15 colon = test system: HCT-15 colon
SN12C renal = test system: SN12C renal
MDA-MB-435 = test system: MDA-MB-435
LOX IMVI melanoma = test system: LOX IMVI melanoma
MCF7 breast = test system: MCF7 breast
NCI-H460 lung = test system: NCI-H460 lung
MDA-MB-231 breast = test system: MDA-MB-231 breast
CCRF-CEM leukemia = test system: CCRF-CEM leukemia
IGROV1 ovarian = test system: IGROV1 ovarian
SK-MEL-28 melanoma = test system: SK-MEL-28 melanoma

`Cn1nc(C(F)(F)F)cc1-c1cc(Cl)c(COc2ccc(Cl)cc2)c(-c2ccc(Cl)c(C(F)(F)F)c2)c1O` was tested. Which GI50 (UACC-62 melanoma) did it give?
Its GI50 is 1.45 µM.

What about the TGI (UACC-62 melanoma) of the same compound?
Its TGI is 4.88 µM.

And the GI50 (SR leukemia)?
The GI50 was 2.66 µM.

What about the TGI (SR leukemia) of the same compound?
Its TGI is > 100 µM.

What about the GI50 (A549 NSCLC) of the same compound?
Its GI50 is 3.36 µM.

And the TGI (A549 NSCLC)?
The TGI was 15.5 µM.

What about the GI50 (SF-539 CNS) of the same compound?
Its GI50 is 2.06 µM.

What about the TGI (SF-539 CNS) of the same compound?
Its TGI is 5.69 µM.

And the GI50 (OVCAR-4 ovarian)?
Its GI50 is 3.11 µM.

And the TGI (OVCAR-4 ovarian)?
The TGI was 13.5 µM.

And the GI50 (BT-549 breast)?
The GI50 was 1.85 µM.

What about the TGI (BT-549 breast) of the same compound?
The TGI was 7.48 µM.

What about the GI50 (T-47D breast) of the same compound?
Its GI50 is 0.724 µM.

What about the TGI (T-47D breast) of the same compound?
Its TGI is 8.7 µM.

And the GI50 (HCT-116 colon)?
Its GI50 is 1.71 µM.

What about the TGI (HCT-116 colon) of the same compound?
The TGI was 10.5 µM.

And the GI50 (A498 renal)?
The GI50 was 2.53 µM.

What about the TGI (A498 renal) of the same compound?
The TGI was 7.3 µM.

And the GI50 (786-0 renal)?
The GI50 was 2.62 µM.

And the TGI (786-0 renal)?
The TGI was 7.97 µM.

What about the GI50 (M14 melanoma) of the same compound?
The GI50 was 2.74 µM.

What about the TGI (M14 melanoma) of the same compound?
Its TGI is 8.16 µM.

And the GI50 (SF-295 CNS)?
Its GI50 is 1.88 µM.

And the TGI (SF-295 CNS)?
Its TGI is 4.12 µM.

What about the GI50 (UO-31 renal) of the same compound?
The GI50 was 2.57 µM.

And the TGI (UO-31 renal)?
The TGI was 8.6 µM.

What about the GI50 (OVCAR-5 ovarian) of the same compound?
Its GI50 is 3.83 µM.

What about the TGI (OVCAR-5 ovarian) of the same compound?
Its TGI is 13.5 µM.

What about the GI50 (NCI-H226 lung) of the same compound?
The GI50 was 2.72 µM.

And the TGI (NCI-H226 lung)?
Its TGI is 9.52 µM.

And the GI50 (HS 578T breast)?
Its GI50 is 1.82 µM.

What about the TGI (HS 578T breast) of the same compound?
Its TGI is 6.58 µM.

What about the GI50 (SNB-75 CNS) of the same compound?
The GI50 was 2 µM.

And the TGI (SNB-75 CNS)?
The TGI was 8.07 µM.

What about the GI50 (HCC-2998 colon) of the same compound?
The GI50 was 1.68 µM.

What about the TGI (HCC-2998 colon) of the same compound?
The TGI was 10.5 µM.

And the GI50 (U251 CNS)?
The GI50 was 2.42 µM.

What about the TGI (U251 CNS) of the same compound?
The TGI was 14.3 µM.

What about the GI50 (SNB-19 CNS) of the same compound?
Its GI50 is 2.25 µM.

And the TGI (SNB-19 CNS)?
Its TGI is 13.1 µM.

What about the GI50 (CAKI-1 renal) of the same compound?
Its GI50 is 2.17 µM.

And the TGI (CAKI-1 renal)?
Its TGI is 7.56 µM.

What about the GI50 (NCI-H522 lung) of the same compound?
Its GI50 is 1.79 µM.

What about the TGI (NCI-H522 lung) of the same compound?
The TGI was 13.4 µM.

What about the GI50 (PC-3 prostate) of the same compound?
Its GI50 is 1.57 µM.

What about the TGI (PC-3 prostate) of the same compound?
The TGI was 10.5 µM.

And the GI50 (HOP-62 NSCLC)?
Its GI50 is 3.26 µM.

What about the TGI (HOP-62 NSCLC) of the same compound?
The TGI was 10.8 µM.

And the GI50 (ACHN renal)?
Its GI50 is 2.23 µM.

What about the TGI (ACHN renal) of the same compound?
The TGI was 9.21 µM.

What about the GI50 (MALME-3M melanoma) of the same compound?
Its GI50 is 1.96 µM.

What about the TGI (MALME-3M melanoma) of the same compound?
The TGI was 5.16 µM.

And the GI50 (RXF 393 renal)?
Its GI50 is 1.64 µM.

What about the TGI (RXF 393 renal) of the same compound?
The TGI was 5.54 µM.

And the GI50 (OVCAR-8 ovarian)?
The GI50 was 3.09 µM.

And the TGI (OVCAR-8 ovarian)?
The TGI was 14.5 µM.

And the GI50 (K-562 leukemia)?
Its GI50 is 0.509 µM.

And the TGI (K-562 leukemia)?
The TGI was > 100 µM.

And the GI50 (NCI-H23 lung)?
The GI50 was 1.45 µM.

What about the TGI (NCI-H23 lung) of the same compound?
Its TGI is 4.77 µM.

What about the GI50 (SK-OV-3 ovarian) of the same compound?
The GI50 was 3.02 µM.

What about the TGI (SK-OV-3 ovarian) of the same compound?
The TGI was 11 µM.

And the GI50 (UACC-257 melanoma)?
The GI50 was 2.67 µM.

What about the TGI (UACC-257 melanoma) of the same compound?
The TGI was 10.5 µM.

And the GI50 (HOP-92 NSCLC)?
Its GI50 is 1.61 µM.

And the TGI (HOP-92 NSCLC)?
Its TGI is 4.38 µM.

And the GI50 (HT29 colon)?
Its GI50 is 3.36 µM.

And the TGI (HT29 colon)?
The TGI was 14.6 µM.

And the GI50 (COLO 205 colon)?
Its GI50 is 1.38 µM.

What about the TGI (COLO 205 colon) of the same compound?
Its TGI is 2.75 µM.

What about the GI50 (SK-MEL-2 melanoma) of the same compound?
The GI50 was 2.09 µM.

And the TGI (SK-MEL-2 melanoma)?
Its TGI is 5.3 µM.

What about the GI50 (KM12 colon) of the same compound?
The GI50 was 2.85 µM.

And the TGI (KM12 colon)?
The TGI was 10.8 µM.

And the GI50 (OVCAR-3 ovarian)?
Its GI50 is 2.26 µM.

What about the TGI (OVCAR-3 ovarian) of the same compound?
The TGI was 12.6 µM.

What about the GI50 (EKVX NSCLC) of the same compound?
Its GI50 is 2.51 µM.

What about the TGI (EKVX NSCLC) of the same compound?
Its TGI is 10.4 µM.

And the GI50 (SK-MEL-5 melanoma)?
Its GI50 is 1.18 µM.

And the TGI (SK-MEL-5 melanoma)?
Its TGI is 2.71 µM.

And the GI50 (SF-268 CNS)?
Its GI50 is 2.33 µM.

What about the TGI (SF-268 CNS) of the same compound?
Its TGI is 13.1 µM.

What about the GI50 (SW-620 colon) of the same compound?
The GI50 was 3.13 µM.

What about the TGI (SW-620 colon) of the same compound?
Its TGI is 12.1 µM.

And the GI50 (TK-10 renal)?
Its GI50 is 3.3 µM.

And the TGI (TK-10 renal)?
Its TGI is 15.6 µM.

What about the GI50 (HL-60(TB) leukemia) of the same compound?
The GI50 was 2.18 µM.

And the TGI (HL-60(TB) leukemia)?
Its TGI is 5.69 µM.

And the GI50 (RPMI-8226 leukemia)?
The GI50 was 1.06 µM.

And the TGI (RPMI-8226 leukemia)?
The TGI was 5.4 µM.

And the GI50 (MDA-MB-468 breast)?
The GI50 was 1.95 µM.

What about the TGI (MDA-MB-468 breast) of the same compound?
Its TGI is 8.03 µM.

What about the GI50 (DU-145 prostate) of the same compound?
Its GI50 is 3.08 µM.

What about the TGI (DU-145 prostate) of the same compound?
Its TGI is 14.1 µM.

And the GI50 (HCT-15 colon)?
Its GI50 is 1.28 µM.

And the TGI (HCT-15 colon)?
Its TGI is 7.14 µM.

And the GI50 (SN12C renal)?
The GI50 was 1.26 µM.

What about the TGI (SN12C renal) of the same compound?
Its TGI is 7.7 µM.

And the GI50 (MDA-MB-435)?
Its GI50 is 3.02 µM.

What about the TGI (MDA-MB-435) of the same compound?
Its TGI is 10.3 µM.

What about the GI50 (LOX IMVI melanoma) of the same compound?
Its GI50 is 3.11 µM.

And the TGI (LOX IMVI melanoma)?
The TGI was 10.6 µM.

What about the GI50 (MCF7 breast) of the same compound?
Its GI50 is 1.26 µM.

And the TGI (MCF7 breast)?
Its TGI is 10 µM.

What about the GI50 (NCI-H460 lung) of the same compound?
Its GI50 is 1.27 µM.

And the TGI (NCI-H460 lung)?
Its TGI is 7.3 µM.

And the GI50 (MDA-MB-231 breast)?
The GI50 was 1.88 µM.

And the TGI (MDA-MB-231 breast)?
The TGI was 5.2 µM.

What about the GI50 (CCRF-CEM leukemia) of the same compound?
The GI50 was 1.75 µM.

What about the TGI (CCRF-CEM leukemia) of the same compound?
Its TGI is 10.8 µM.

What about the GI50 (IGROV1 ovarian) of the same compound?
Its GI50 is 2.92 µM.

And the TGI (IGROV1 ovarian)?
The TGI was 14.3 µM.

And the GI50 (SK-MEL-28 melanoma)?
The GI50 was 2.88 µM.

And the TGI (SK-MEL-28 melanoma)?
Its TGI is 11.7 µM.

From PubChem BioAssay (NCI)
